From the supplement of paper PMC6965134
± gives the standard deviation of the averaged measurements.

Experiment: TIMS collisional cross section (CCS, N2) of the lipid ion; higher = larger ion cross section
Conditions: ionization mode: positive, one isomer drawn

CCCCC/C=C\C/C=C\CCCCCCCC(=O)O[C@H](COC(=O)CCCCCCCCCCCCCCC)COP(=O)(O)OCCN [PE 16:0_18:2] (ion (formula + adduct): [C39H74NO8P+H] 1+)
TIMS collisional cross section (sample type: Liver): 272.9 Å²
TIMS collisional cross section (sample type: plasma): 273 Å²

CC/C=C\C/C=C\C/C=C\CCCCCCCC(=O)O[C@H](COC(=O)CCCCCCCCCCCCCCC)COP(=O)(O)OCCN [PE 16:0_18:3@] (ion (formula + adduct): [C39H72NO8P+H] 1+)
TIMS collisional cross section (sample type: Liver): 269.9 Å²

CCCCC/C=C\C/C=C\C/C=C\C/C=C\CCCC(=O)O[C@H](COC(=O)CCCCCCCCCCCCCCC)COP(=O)(O)OCCN [PE 16:0_20:4] (ion (formula + adduct): [C41H74NO8P+H] 1+)
TIMS collisional cross section (sample type: HeLa): 276.1 ± 1.1 Å²
TIMS collisional cross section (sample type: Liver): 277.25 ± 0.49 Å²

CC/C=C\C/C=C\C/C=C\C/C=C\C/C=C\C/C=C\CCC(=O)O[C@H](COC(=O)CCCCCCCCCCCCCCC)COP(=O)(O)OCCN [PE 16:0_22:6@] (ion (formula + adduct): [C43H74NO8P+H] 1+)
TIMS collisional cross section (sample type: Liver): 280.9 Å²

CC/C=C\C/C=C\C/C=C\C/C=C\C/C=C\C/C=C\CCC(=O)O[C@H](COC(=O)CCCCCCCCCCCCCCC)COP(=O)(O)OCCN [PE 16:0_22:6] (ion (formula + adduct): [C43H74NO8P+H] 1+)
TIMS collisional cross section (sample type: HeLa): 278.6 Å²

CCCCCC/C=C\CCCCCCCC(=O)OC[C@H](COP(=O)(O)OCCN)OC(=O)CCCCCCCCCCCCCCC [PE 16:1@_16:0] (ion (formula + adduct): [C37H72NO8P+H] 1+)
TIMS collisional cross section (sample type: Liver): 268.7 Å²

CCCCC/C=C\C/C=C\C/C=C\CCCCC(=O)O[C@H](COC(=O)CCCCCCC/C=C\CCCCCC)COP(=O)(O)OCCN [PE 16:1@_18:3] (ion (formula + adduct): [C39H70NO8P+H] 1+)
TIMS collisional cross section (sample type: Liver): 266 Å²

CCCCCC/C=C\CCCCCCCC(=O)OC[C@H](COP(=O)(O)OCCN)OC(=O)CCCCCCCCCCCCC [PE 16:1_14:0] (ion (formula + adduct): [C35H68NO8P+H] 1+)
TIMS collisional cross section (sample type: HeLa): 262 Å²

CCCCCC/C=C\CCCCCCCC(=O)OC[C@H](COP(=O)(O)OCCN)OC(=O)CCCCCCCCCCCCCCC [PE 16:1_16:0] (ion (formula + adduct): [C37H72NO8P+H] 1+)
TIMS collisional cross section (sample type: HeLa): 268.7 Å²

CCCCCC/C=C\CCCCCCCC(=O)OC[C@H](COP(=O)(O)OCCN)OC(=O)CCCCCCC/C=C\CCCCCC [PE 16:1_16:1] (ion (formula + adduct): [C37H70NO8P+Na] 1+)
TIMS collisional cross section (sample type: HeLa): 266.4 Å²

CCCCCC/C=C\CCCCCCCC(=O)OC[C@H](COP(=O)(O)OCCN)OC(=O)CCCCCCC/C=C\CCCCCCC [PE 16:1_17:1@] (ion (formula + adduct): [C38H72NO8P+H] 1+)
TIMS collisional cross section (sample type: HeLa): 268.3 Å²

CC/C=C\C/C=C\C/C=C\C/C=C\C/C=C\CCCC(=O)O[C@H](COC(=O)CCCCCCC/C=C\CCCCCC)COP(=O)(O)OCCN [PE 16:1_20:5@] (ion (formula + adduct): [C41H70NO8P+H] 1+)
TIMS collisional cross section (sample type: HeLa): 269.8 Å²
TIMS collisional cross section (sample type: Liver): 269.8 Å²

CCCCC/C=C\C/C=C\C/C=C\C/C=C\CCCC(=O)O[C@H](COC(=O)CCCCCCCCCCCCCCCC)COP(=O)(O)OCCN [PE 17:0_20:4@] (ion (formula + adduct): [C42H76NO8P+H] 1+)
TIMS collisional cross section (sample type: HeLa): 280.4 Å²
TIMS collisional cross section (sample type: Liver): 280.35 ± 0.071 Å²

CCCCC/C=C\C/C=C\C/C=C\C/C=C\CCCC(=O)O[C@H](COC(=O)CCCCCCC/C=C\CCCCCCC)COP(=O)(O)OCCN [PE 17:1_20:4] (ion (formula + adduct): [C42H74NO8P+H] 1+)
TIMS collisional cross section (sample type: Liver): 275.6 Å²

CCCCCCCCCCCCCCCCCC(=O)OC[C@H](COP(=O)(O)OCCN)OC(=O)CCCCCCCCCCCCCCC [PE 18:0@_16:0] (ion (formula + adduct): [C39H78NO8P+H] 1+)
TIMS collisional cross section (sample type: HeLa): 280.3 Å²

CCCCCCCC/C=C\CCCCCCCC(=O)O[C@H](COC(=O)CCCCCCCCCCCCCCCCC)COP(=O)(O)OCCN [PE 18:0@_18:1] (ion (formula + adduct): [C41H80NO8P+H] 1+)
TIMS collisional cross section (sample type: Liver): 282.2 Å²
TIMS collisional cross section (sample type: plasma): 282.1 Å²

CCCCC/C=C\C/C=C\C/C=C\CCCCC(=O)O[C@H](COC(=O)CCCCCCCCCCCCCCCCC)COP(=O)(O)OCCN [PE 18:0@_18:3] (ion (formula + adduct): [C41H76NO8P+H] 1+)
TIMS collisional cross section (sample type: plasma): 279 Å²

CCCCCCCCCCCCCCCCCC(=O)OC[C@H](COP(=O)(O)OCCN)OC(=O)CCCCCCCCCCCCCCCCC [PE 18:0_18:0] (ion (formula + adduct): [C41H82NO8P+Na] 1+)
TIMS collisional cross section (sample type: HeLa): 286.4 Å²
TIMS collisional cross section (sample type: Liver): 286.2 Å²

CCCCCCCC/C=C\CCCCCCCC(=O)O[C@H](COC(=O)CCCCCCCCCCCCCCCCC)COP(=O)(O)OCCN [PE 18:0_18:1] (ion (formula + adduct): [C41H80NO8P+H] 1+)
TIMS collisional cross section (sample type: HeLa): 282.2 Å²

CCCCC/C=C\C/C=C\CCCCCCCC(=O)O[C@H](COC(=O)CCCCCCCCCCCCCCCCC)COP(=O)(O)OCCN [PE 18:0_18:2] (ion (formula + adduct): [C41H78NO8P+H] 1+)
TIMS collisional cross section (sample type: Liver): 279.7 Å²
TIMS collisional cross section (sample type: plasma): 279.8 Å²

CCCCC/C=C\C/C=C\C/C=C\CCCCC(=O)O[C@H](COC(=O)CCCCCCCCCCCCCCCCC)COP(=O)(O)OCCN [PE 18:0_18:3@] (ion (formula + adduct): [C41H76NO8P+H] 1+)
TIMS collisional cross section (sample type: Liver): 278.7 Å²

CCCCCCCC/C=C\CCCCCCCCCC(=O)O[C@H](COC(=O)CCCCCCCCCCCCCCCCC)COP(=O)(O)OCCN [PE 18:0_20:1] (ion (formula + adduct): [C43H84NO8P+H] 1+)
TIMS collisional cross section (sample type: Liver): 289.3 Å²

CCCCC/C=C\C/C=C\C/C=C\C/C=C\CCCC(=O)O[C@H](COC(=O)CCCCCCCCCCCCCCCCC)COP(=O)(O)OCCN [PE 18:0_20:4@] (ion (formula + adduct): [C43H78NO8P+H] 1+)
TIMS collisional cross section (sample type: HeLa): 284.1 Å²
TIMS collisional cross section (sample type: Liver): 283.9 ± 0.37 Å²

CCCCC/C=C\C/C=C\C/C=C\C/C=C\CCCC(=O)O[C@H](COC(=O)CCCCCCCCCCCCCCCCC)COP(=O)(O)OCCN [PE 18:0_20:4] (ion (formula + adduct): [C43H78NO8P+H] 1+)
TIMS collisional cross section (sample type: Liver): 284.15 ± 0.49 Å²
TIMS collisional cross section (sample type: plasma): 283.5 Å²

CC/C=C\C/C=C\C/C=C\C/C=C\C/C=C\C/C=C\CCC(=O)O[C@H](COC(=O)CCCCCCCCCCCCCCCCC)COP(=O)(O)OCCN [PE 18:0_22:6] (ion (formula + adduct): [C45H78NO8P+H] 1+)
TIMS collisional cross section (sample type: HeLa): 285.5 Å²
TIMS collisional cross section (sample type: Liver): 285.6 Å²

CCCCCCCC/C=C\CCCCCCCCCC(=O)O[C@H](COC(=O)CCCCCCC/C=C\CCCCCCCC)COP(=O)(O)OCCN [PE 18:1@_20:1] (ion (formula + adduct): [C43H82NO8P+H] 1+)
TIMS collisional cross section (sample type: HeLa): 286.2 Å²

CCCCC/C=C\C/C=C\CCCCCCCCCC(=O)O[C@H](COC(=O)CCCCCCC/C=C\CCCCCCCC)COP(=O)(O)OCCN [PE 18:1@_20:2] (ion (formula + adduct): [C43H80NO8P+H] 1+)
TIMS collisional cross section (sample type: Liver): 283.3 Å²

CCCCCCCC/C=C\CCCCCCCC(=O)OC[C@H](COP(=O)(O)OCCN)OC(=O)CCCCCCCCCCCCCCCC [PE 18:1_17:0@] (ion (formula + adduct): [C40H78NO8P+H] 1+)
TIMS collisional cross section (sample type: HeLa): 279 Å²

CCCCCCCC/C=C/CCCCCCCC(=O)OC[C@H](COP(=O)(O)OCCN)OC(=O)CCCCCCC/C=C/CCCCCCCC [PE 18:1_18:1] (ion (formula + adduct): [C41H78NO8P+H] 1+)
TIMS collisional cross section (sample type: HeLa): 279.2 ± 0.71 Å²

CCCCCCCC/C=C/CCCCCCCC(=O)OC[C@H](COP(=O)(O)OCCN)OC(=O)CCCCCCC/C=C/CCCCCCCC [PE 18:1_18:1] (ion (formula + adduct): [C41H78NO8P+Na] 1+)
TIMS collisional cross section (sample type: HeLa): 279.7 Å²
TIMS collisional cross section (sample type: plasma): 280.6 Å²

CCCCCCCC/C=C\CCCCCCCC(=O)OC[C@H](COP(=O)(O)OCCN(C)C)OC(=O)CCCCCCC/C=C\CCCCCCCC [PE 18:1_18:1] (ion (formula + adduct): [C43H82NO8P+Na] 1+)
TIMS collisional cross section (sample type: Liver): 290.8 Å²

CCCCC/C=C\C/C=C\CCCCCCCC(=O)O[C@H](COC(=O)CCCCCCC/C=C\CCCCCCCC)COP(=O)(O)OCCN [PE 18:1_18:2@] (ion (formula + adduct): [C41H76NO8P+H] 1+)
TIMS collisional cross section (sample type: HeLa): 277.9 Å²
TIMS collisional cross section (sample type: plasma): 275.8 Å²

CCCCC/C=C\C/C=C\CCCCCCCC(=O)O[C@H](COC(=O)CCCCCCC/C=C\CCCCCCCC)COP(=O)(O)OCCN [PE 18:1_18:2] (ion (formula + adduct): [C41H76NO8P+H] 1+)
TIMS collisional cross section (sample type: HeLa): 275.7 Å²
TIMS collisional cross section (sample type: Liver): 276.1 Å²

CCCCC/C=C\C/C=C\CCCCCCCC(=O)O[C@H](COC(=O)CCCCCCC/C=C\CCCCCCCC)COP(=O)(O)OCCN [PE 18:1_18:2] (ion (formula + adduct): [C41H76NO8P+Na] 1+)
TIMS collisional cross section (sample type: HeLa): 276 Å²
TIMS collisional cross section (sample type: Liver): 277.2 Å²

CCCCCCCC/C=C\CCCCCCCCCC(=O)O[C@H](COC(=O)CCCCCCC/C=C\CCCCCCCC)COP(=O)(O)OCCN [PE 18:1_20:1@] (ion (formula + adduct): [C43H82NO8P+H] 1+)
TIMS collisional cross section (sample type: Liver): 285.5 Å²

CCCCCCCC/C=C\CCCCCCCC(=O)OC[C@H](COP(=O)(O)OCCN)OC(=O)CCCCCCCCC/C=C\CCCCCCCCCC [PE 18:1_22:1] (ion (formula + adduct): [C45H86NO8P+H] 1+)
TIMS collisional cross section (sample type: HeLa): 292.4 Å²

CCCCC/C=C\C/C=C\CCCCCCCCCCCC(=O)O[C@H](COC(=O)CCCCCCC/C=C\CCCCCCCC)COP(=O)(O)OCCN [PE 18:1_22:2@] (ion (formula + adduct): [C45H84NO8P+H] 1+)
TIMS collisional cross section (sample type: Liver): 291.5 Å²
